From patent publication US20260234147A1 (priority 2023, published 2026)
Where two headings read alike, the source gives them in different places.

What was measured:
[1] = target: T1, hMOR (Homo sapiens, UniProt P35372); assay: cell-based; parameters: expressed in transfected cells
[2] = target: T1, hMOR; assay: Radioligand binding assay (Eurofins Cerep), [3H]DAMGO displacement
[3] = target: hKOR (Homo sapiens, UniProt P41145); assay: Radioligand binding assay (Eurofins Cerep), [3H]U69,593 displacement; conditions: read-out: KOR Ki ± SEM
[4] = target: hDOR (Homo sapiens, UniProt P41143); assay: Radioligand binding assay (Eurofins Cerep), [3H]DADLE displacement; conditions: read-out: DOR Ki ± SEM
[5] = target: T2, α2A adrenergic receptor (Homo sapiens, UniProt P08913); assay: Radioligand binding assay (Eurofins Cerep), [3H]RX 821002 displacement; conditions: read-out: Alpha2A Ki ± SEM
T2 construct: Eurofins Cerep (contract screening)
T2 sequence (P08913 1-465): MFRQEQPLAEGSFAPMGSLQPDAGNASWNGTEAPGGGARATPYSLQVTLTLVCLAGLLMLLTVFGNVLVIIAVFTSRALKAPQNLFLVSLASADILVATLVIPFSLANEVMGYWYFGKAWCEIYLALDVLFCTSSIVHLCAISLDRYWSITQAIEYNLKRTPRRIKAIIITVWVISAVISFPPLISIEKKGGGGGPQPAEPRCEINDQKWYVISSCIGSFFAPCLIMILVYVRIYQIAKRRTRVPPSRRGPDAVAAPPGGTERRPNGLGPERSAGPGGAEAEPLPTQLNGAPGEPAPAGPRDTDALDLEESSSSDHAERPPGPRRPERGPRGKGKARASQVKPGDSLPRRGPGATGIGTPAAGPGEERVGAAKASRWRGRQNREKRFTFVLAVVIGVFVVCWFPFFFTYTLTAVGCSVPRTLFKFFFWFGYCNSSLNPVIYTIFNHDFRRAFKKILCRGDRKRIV

[6] = Metabolic stability in rat liver microsomes; assay type: in vitro ADME; conditions: for Whole liver clearance, CL int, H: in vitro intrinsic clearance in RLM scaled to whole organ (rat); for RLM stability: rat liver microsomes 1 mg/ml, substrate 1 μM, NADPH, 37° C.
Method: In vitro metabolic stability of each compound was determined using rat liver microsomes in triplicate. Verapamil was used as a positive control to check the activity of the microsomes. The incubation mixtures consisted of rat liver microsomes (1 mg microsomal protein/ml), substrate (1 μM), and reduced NADPH (1 mM) in a total volume of 0.4 ml potassium phosphate buffer (50 mM, pH 7.4). Reactions were initiated with the addition of NADPH and kept in an incubator shaker at 37° C. Aliquots of 25 μl were withdrawn at 0, 5, 10, 15, 30, and 60 min and mixed with 125 μl of acetonitrile with formic acid (0.1% v/v) containing phenacetin (50 ng/ml; internal standard) for the termination of the reaction. The samples were then vortex mixed and filtered through a […] 96-well membrane filtration plate under centrifugation at speed of 2000×g for 5 min at 4° C. The filtrates were subjected to UPLC-mass spectrometry (MS/MS) analysis.
The intrinsic clearance of the compounds was calculated using a half-life employing the ‘substrate depletion’ approach. The apparent half-life was calculated from the pseudo-first-order rate constants obtained by linear regression of log (concentration) and time plots. The in vitro intrinsic clearance of IFN was estimated using the formula: […]
Where k is the slope of the line obtained by plotting the natural logarithmic of the percentage of parent remaining versus time and V is the volume of incubation.
The in vitro intrinsic clearance was scaled to whole-organ (hepatic) in vivo intrinsic CL (CLint,H) using the scaling factors available in the literature using equation (Mahmood I. Application of allometric principles for the prediction of pharmacokinetics in human and veterinary drug development. Advanced drug delivery reviews, 2007, 59(11), 1177-1192)
MPPGL represents the microsomal protein per gram of Sprague Dawley rat liver (45 mg/g) and liver weight per kg body weight was 40 g/kg.

[7] = Table A1, data summary #1, read-out: MOR Ki ± SEM
[8] = Table A4, data summary #2, read-out: MOR Ki ± SEM

hKOR, sequence (P41145 whole entry): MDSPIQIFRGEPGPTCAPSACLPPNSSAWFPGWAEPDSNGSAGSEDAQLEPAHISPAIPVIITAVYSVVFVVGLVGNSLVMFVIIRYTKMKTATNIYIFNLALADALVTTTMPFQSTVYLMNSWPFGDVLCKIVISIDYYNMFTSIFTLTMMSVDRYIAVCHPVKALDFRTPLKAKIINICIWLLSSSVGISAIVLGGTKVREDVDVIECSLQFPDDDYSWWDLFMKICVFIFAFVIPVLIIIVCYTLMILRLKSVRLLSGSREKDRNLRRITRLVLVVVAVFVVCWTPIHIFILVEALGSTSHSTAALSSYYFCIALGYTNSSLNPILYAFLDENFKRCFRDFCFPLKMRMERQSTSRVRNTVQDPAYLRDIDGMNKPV
T1 sequence (P35372 whole entry): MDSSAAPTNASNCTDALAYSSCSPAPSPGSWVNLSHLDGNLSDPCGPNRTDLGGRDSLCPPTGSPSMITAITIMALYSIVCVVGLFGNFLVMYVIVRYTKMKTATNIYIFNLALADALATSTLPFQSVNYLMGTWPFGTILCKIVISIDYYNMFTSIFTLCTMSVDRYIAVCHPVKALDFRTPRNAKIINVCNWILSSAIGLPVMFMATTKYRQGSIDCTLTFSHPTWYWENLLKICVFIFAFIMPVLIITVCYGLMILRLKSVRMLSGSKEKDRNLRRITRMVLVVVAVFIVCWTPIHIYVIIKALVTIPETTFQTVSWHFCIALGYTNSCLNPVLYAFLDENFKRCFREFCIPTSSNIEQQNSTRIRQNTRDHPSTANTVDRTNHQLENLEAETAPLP
hDOR, sequence (P41143 whole entry): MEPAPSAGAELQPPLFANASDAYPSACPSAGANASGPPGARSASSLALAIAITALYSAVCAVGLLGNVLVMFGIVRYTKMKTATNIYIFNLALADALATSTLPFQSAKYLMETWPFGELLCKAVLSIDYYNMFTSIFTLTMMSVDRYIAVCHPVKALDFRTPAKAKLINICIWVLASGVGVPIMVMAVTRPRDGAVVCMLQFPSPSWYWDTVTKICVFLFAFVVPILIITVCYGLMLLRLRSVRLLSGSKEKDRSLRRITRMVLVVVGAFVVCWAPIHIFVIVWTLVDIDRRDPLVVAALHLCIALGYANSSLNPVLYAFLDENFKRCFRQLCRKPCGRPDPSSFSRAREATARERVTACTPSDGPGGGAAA

SMILES	Emax ([1]; CHO, read-out: MOR Emax ± SEM (%)) [%]	MOR Emax ± SEM (% DAMGO) ([1]; Table A1, data summary #1)	Ki [2, 7] [µM]	Ki ([3]; Table A1, data summary #1) [µM]	Ki ([4]; Table A1, data summary #1) [µM]	Ki [2, 8] [µM]	Ki ([3]; Table A4, data summary #2) [µM]	Ki ([5]; Table A1, data summary #1) [µM]	Ki ([5]; Table A4, data summary #2) [µM]	Whole liver clearance, CL int, H [6] [L/h/kg]	RLM stability [6] [min]	Ki ([4]; Table A4, data summary #2) [µM]	Ki ([2]; read-out: Ki at hMOR) [µM]
C[C@@H](NC(=O)[C@@H](N)Cc1ccc(O)cc1)C(=O)NCC(=O)N(C)[C@@H](Cc1ccccc1)C(=O)NCCO [DAMGO, reference compound]	106 ± 2												
CC[C@@H]1CN2CC[C@]3(Nc4cccc(OC)c4C3=O)[C@@H]2C[C@@H]1/C(=C\OC)C(=O)OC [Mitragynine pseudoindoxyl, reference compound]		42.4	0.0013	0.15	0.00293								
CC[C@@H]1CN2CCc3c([nH]c4cccc(OC)c34)[C@@H]2C[C@@H]1/C(=C\OC)C(=O)NC [SUSM-25, (E)-2-((2S,3S,12bS)-3-ethyl-8-methoxy-1,2,3,4,6,7,12,12b-octahydroindolo[2,3-a]quinolizin-2-yl)-3-methoxy-N-methylacrylamide]			4.02 ± 0.728	> 10	> 10	3.52 ± 0.763	> 10	7.04 ± 1.82	6.74 ± 1.91	0.534	>60	> 10	
CCCNC(=O)/C(=C/OC)[C@H]1C[C@H]2c3[nH]c4cccc(OC)c4c3CCN2C[C@H]1CC [SUSM-27, (E)-2-((2S,3S,12bS)-3-ethyl-8-methoxy-1,2,3,4,6,7,12,12b-octahydroindolo[2,3-a]quinolizin-2-yl)-3-methoxy-N-propylacrylamide]			4.56 ± 0.692	> 10	> 10	4.56 ± 0.692	> 10	2.73 ± 1.26	6.45 ± 2.59	1.25	>60	> 10	
CCNC(=O)/C(=C/OC)[C@H]1C[C@H]2c3[nH]c4cccc(OC)c4c3CCN2C[C@H]1CC [SUSM-32, (E)-N-ethyl-2-((2S,3S,12bS)-3-ethyl-8-methoxy-1,2,3,4,6,7,12,12b-octahydroindolo[2,3-a]quinolizin-2-yl)-3-methoxyacrylamide]			4.22 ± 0.752	> 10	> 10	4.22 ± 0.752	> 10	4.29 ± 1.12	3.87 ± 0.984	0.684	>60	> 10	
CC[C@@H]1CN2CCc3c([nH]c4cccc(OC)c34)[C@@H]2C[C@@H]1/C(=C\OC)C(=O)NC1CCCC1 [SUSM-506, (E)-N-cyclopentyl-2-((2S,3S,12bS)-3-ethyl-8-methoxy-1,2,3,4,6,7,12,12b-octahydroindolo[2,3-a]quinolizin-2-yl)-3-methoxyacrylamide]			1.38 ± 0.176	5.85 ± 0.657	> 10	1.38 ± 0.176	5.85 ± 0.657	8.97 ± 0.572	5.75 ± 0.568	2.18	30	> 10	
CC[C@@H]1CN2CCc3c([nH]c4cccc(OC)c34)[C@@H]2C[C@@H]1/C(=C\OC)C(=O)N1CCCC1 [SUSM-507, (E)-2-((2S,3S,12bS)-3-ethyl-8-methoxy-1,2,3,4,6,7,12,12b-octahydroindolo[2,3-a]quinolizin-2-yl)-3-methoxy-1-(pyrrolidin-1-yl)prop-2-en-1-one]			0.655 ± 0.0766	> 10	> 10	0.655 ± 0.0766	> 10	9.85 ± 1.57	4.99 ± 1.02	50.03	<5	6.26 ± 3.17	
CC[C@@H]1CN2CCc3c([nH]c4cccc(OC)c34)[C@@H]2C[C@@H]1/C(=C\OC)C(=O)N(CC)CC [SUSM-509, (E)-N,N-diethyl-2-((2S,3S,12bS)-3-ethyl-8-methoxy-1,2,3,4,6,7,12,12b-octahydroindolo[2,3-a]quinolizin-2-yl)-3-methoxyacrylamide]			1.13 ± 0.0738	> 10	> 10	1.13 ± 0.0738	> 10	5.2 ± 0.621	2.73 ± 0.488		<5	> 10	
CC[C@@H]1CN2CCc3c([nH]c4cccc(OC)c34)[C@@H]2C[C@@H]1/C(=C\OC)C(=O)N1CCCCC1 [SUSM-518, (E)-2-((2S,3S,12bS)-3-ethyl-8-methoxy-1,2,3,4,6,7,12,12b-octahydroindolo[2,3-OMea]quinolizin-2-yl)-3-methoxy-1-(piperidin-1-yl)prop-2-en-1-one]				7.46 ± 1.42	> 10	0.244 ± 0.055	7.46 ± 1.42		0.523 ± 0.155		<5	> 10	0.129
CC[C@@H]1CN2CCc3c([nH]c4cccc(OC)c34)[C@@H]2C[C@@H]1/C(=C\OC)C(=O)NC1CCCCC1 [SUSM-519, (E)-N-cyclohexyl-2-((2S,3S,12bS)-3-ethyl-8-methoxy-1,2,3,4,6,7,12,12b-octahydroindolo[2,3-a]quinolizin-2-yl)-3-methoxyacrylamide]			3.59 ± 0.663	2.79 ± 0.64	> 10	2.18 ± 0.603	2.79 ± 0.64		0.933 ± 0.242	2.3	30	> 10	
CC[C@@H]1CN2CCc3c([nH]c4cccc(OC)c34)[C@@H]2C[C@@H]1/C(=C\OC)C(=O)N(C)CC [SUSM-520, (E)-N-ethyl-2-((2S,3S,12bS)-3-ethyl-8-methoxy-1,2,3,4,6,7,12,12b-octahydroindolo[2,3-a]quinolizin-2-yl)-3-methoxy-N-methylacrylamide]			0.459 ± 0.0407	4.78 ± 1.14	> 10	0.452 ± 0.033	4.78 ± 1.14		0.938 ± 0.223	52.78	<5	> 10	
CCCN(C)C(=O)/C(=C/OC)[C@H]1C[C@H]2c3[nH]c4cccc(OC)c4c3CCN2C[C@H]1CC [SUSM-521, (E)-2-((2S,3S,12bS)-3-ethyl-8-methoxy-1,2,3,4,6,7,12,12b-octahydroindolo[2,3-a]quinolizin-2-yl)-3-methoxy-N-methyl-N-propylacrylamide]				2.61 ± 0.588	5.89 ± 0.105	0.222 ± 0.033	2.61 ± 0.588		1.51 ± 0.676		<5	4.03 ± 0.797	0.167
